Measured values reported in patent US20030138857A1, “Method of inhibiting atherosclerotic plaque destabilization” (priority 2002, published 2003).
Several values for one entry are separate records, joined by “and”; a condition that tells them apart may be missing. Identical values can stand only once. Where a SMILES comes first, the peptide text is derived from it. The star is where a group is joined. Cbz = O=C(OCc1ccccc1)*; CH2F = FC*

System: VSMCs
Test: Monocyte/VSMC co-culture apoptosis assay (Hoechst 33342/propidium iodide, apoptotic index)
Format: cell-based, human
Conditions: for inhibition of M-CSF-triggered, monocyte-induced apoptosis of VSMCs: eptifibatide 5 μg/ml, tirofiban 0.35 μg/ml, compared with abciximab; for VSMC apoptosis: M-CSF 100 ng/mL
Protocol: VSMCs (passage 3 to 7) were obtained from Clonetics and from heart donors. VSMC identity was confirmed by α-smooth muscle actin staining. VSMCs initially were grown in growth medium (SmGM2; Clonetics) with 5% serum, and at 60% to 70% confluence, the media was changed to a serum-free medium (50:50 of DMEM/F12 media with 5 mL of ITS, PSA, L-glutamine, and nonessential amino acids per 500 mL of solution). After 72-hour incubation in the serum-free medium, VSMCs were co-cultured with monocytes. Co-culture experiments were also conducted with the use of SmGM2 media (5% serum) throughout the experiment.
Leukocytes were isolated from buffy coat preparations (American Red Cross) by means of the Ficoll-Paque gradient method. Monocytes were isolated by means of an indirect magnetic labeling system and a monocyte isolation kit. The purity of monocytes obtained was […], which was confirmed by flow cytometry with anti-CD-14-FITC and anti-CD45-PE antibodies.
Freshly isolated monocytes were added 3:1 to VSMCs. Conditions included wells with VSMCs alone (with or without M-CSF) and VSMCs co-cultured with monocytes (with and without M-CSF). Experiments were conducted with either no serum or 5% serum in media. Experiments were also repeated by preincubating VSMCs with a pan-caspase inhibitor (1 hour at 37° C.) (ZVAD-fmk [10 μmol/L/mL]; sequence Z-Val-Ala-Asp [Ome]-CH2 F), before addition of the MMs and M-CSF. Media and ZVAD-fmk were replenished every 24 hours. Specific controls were used for VSMCs with ZVAD-fmk.
Abciximab, aggrastat, and eptifibatide, 3 established parenteral glycoprotein (GP) IIb/IIIa blockers, were added to MM and VSMC co-cultures before exposure to M-CSF. Controls were used for VSMCs with abciximab, aggrastat, and eptifibatide separately, with or without M-CSF. All experiments were done in triplicate.
Experiments were done with the use of recombinant human IL-1 β (100 to 1000 pg/mL) in place of M-CSF. Anti-human M-CSF neutralizing antibody (1 μg/mL) was added along with IL-1 β, and the VSMCs plus monocytes were co-cultured for 72 hours. Isotype control, IgG2a (clone 20102.1), was used for VSMCs cultured with monocytes and IL-1 β.
After 72-hour incubation, MM and VSMC co-cultures were stained live with the Vybrant Apoptosis kit (Molecular Probes), consisting of 2 nuclear stains, Hoechst 33342 (5 mg/mL) and propidium iodide (1 mg/mL). After incubation for 20 minutes at 37° C., coverslips were washed and the cell death index was estimated as previously described (Webster et al, J. Clin. Invest. 104:239-252 ([…])) (apoptotic index=dead cells/[live cells+dead cells]×100).

In the case of `COC(=O)C[C@H](NC(=O)[C@H](C)NC(=O)[C@@H](NC(=O)OCc1ccccc1)C(C)C)C(=O)CF` [ZVAD-fmk, Z-Val-Ala-Asp [Ome]-CH2 F, reference compound] (Cbz-Val-Ala-Asp(OMe)-CH2F), the “apoptosis induced by co-culture with activated monocytes” value (VSMCs preincubated with ZVAD-fmk (10 μmol/L/mL)) is reported as “completely abrogated” and the “apoptotic index of VSMCs” value (VSMCs preincubated with ZVAD-fmk (10 μmol/L/mL), co-cultured with monocytes and M-CSF, 72 h) is reported as 15.4±0.4%.

`N=C(N)NCCCC[C@@H]1NC(=O)CCSSC[C@@H](C(N)=O)NC(=O)[C@@H]2CCCN2C(=O)[C@H](Cc2c[nH]c3ccccc23)NC(=O)[C@H](CC(=O)O)NC(=O)CNC1=O` [eptifibatide, reference compound] (HELM PEPTIDE1{[O=C(CCS[*:3])[*:2]].[N=C(N)NCCCC[C@H](N[*:1])C(=O)[*:2]].G.D.W.P.C.[am]}$PEPTIDE1,PEPTIDE1,1:R3-7:R3$$$V2.0) was tested, and the cell death index (eptifibatide 5 μg/mL, VSMCs with monocytes and M-CSF) was 51.3±2.2% and the “inhibition of M-CSF-triggered, monocyte-induced apoptosis of VSMCs” value was “unable to confer similar protection”.

`CCCCS(=O)(=O)N[C@@H](Cc1ccc(OCCCCC2CCNCC2)cc1)C(=O)O` [tirofiban, reference compound] was tested, and the “inhibition of M-CSF-triggered, monocyte-induced apoptosis of VSMCs” value was “unable to confer similar protection” and the cell death index (tirofiban 0.35 μg/mL, VSMCs with monocytes and M-CSF) was 65.0±3.4%.

For “IL-1: recombinant human IL-1 β, monocyte-activating cytokine (R&D Systems)”, the “apoptotic index of VSMCs” value (VSMCs with monocytes and IL-1 100 pg/mL in place of M-CSF) was 10.5±2.4%, the “monocyte-induced VSMC death” value (VSMCs with monocytes and IL-1 500 pg/mL) was 59.5±3.5% and the “monocyte-induced VSMC death” value (VSMCs with monocytes and IL-1 1000 pg/mL (1 ng/mL)) was 59±3.8%.

B1: M-CSF: recombinant macrophage colony-stimulating factor (R&D Systems), hematopoietic growth factor (protein, UniProt P09603 33-554, looked up)
Macrophage colony-stimulating …: EEVSEYCSHMIGSGHLQSLQRLIDSQMETSCQITFEFVDQEQLKDPVCYLKKAFLLVQDIMEDTMRFRDNTPNAIAIVQLQELSLRLKSCFTKDYEEHDKACVRTFYETPLQLLEKVKNVFNETKNLLDKDWNIFSKNCNNSFAECSSQDVVTKPDCNCLYPKAIPSSDPASVSPHQPLAPSMAPVAGLTWEDSEGTEGSSLLPGEQPLHTVDPGSAKQRPPRSTCQSFEPPETPVVKDSTIGGSPQPRPSVGAFNPGMEDILDSAMGTNWVPEEASGEASEIPVPQGTELSPSRPGGGSMQTEPARPSNFLSASSPLPASAKGQQPADVTGTALPRVGPVRPTGQDWNHTPQKTDHPSALLRDPPEPGSPRISSLRPQGLSNPSTLSAQPQLSRSHSSGSVLPLGELEGRRSTRDRRSPAEPEGGPASEGAARPLPRFNSVPLTDTGHERQSEGSFSPQLQESVFHLLVPSVILVLLAVGGLLFYRWRRRSHQEPQRADSPLEQPEGSPLTQDDRQVELPV
In the case of B1, the VSMC apoptosis (VSMCs in direct contact with activated monocytes) is reported as 66.3±1.8%, the VSMC apoptosis (monocytes separated from VSMCs by porous insert (3-μm pores)) is reported as 21.0±1.0% and the “apoptotic index of VSMCs” value (VSMCs cultured with M-CSF (100 ng/mL) but without monocytes) is reported as 15.7±1.5%. The “apoptotic index of VSMCs” value (VSMCs cultured with both M-CSF (100 ng/mL) and monocytes, 4 sets of experiments) was 58.8±3.3% and the “apoptotic index of VSMCs” value (VSMCs with M-CSF-activated monocytes, no inhibitor (comparison group of later experiments; M-CSF concentration not given)) was 60±2.1% and 60.0±3.0% and 51.9±1.6% and 51.9±1.8%.

B2: abciximab: chimeric monovalent and humanized monoclonal antibody Fab fragment; GP IIb/IIIa blocker that binds Mac-1 (antibody, chains of the INN, looked up, V domains shown)
VH: EVQLQQSGTVLARPGASVKMSCEASGYTFTNYWMHWVKQRPGQGLEWIGAIYPGNSDTSYIQKFKGKAKLTAVTSTTSVYMELSSLTNEDSAVYYCTLYDGYYVFAYWGQGTLVTVSA
VL: EIVLTQSPVTLSVTPGDSVSLSCRASRDISNNLHWFQQTSHESPRLLIKYASQSMSGIPSRFSGSGSGTDFTLSINSVETEDFGMYFCQQTNSWPYTFGGGTKLEIK
modifications: Fab
For B2, the “apoptotic index of VSMCs” value (abciximab 7 μg/mL, VSMCs with monocytes and M-CSF) was 19.1±2.3% and 19.1±2.2% and the “apoptotic index of VSMCs” value (abciximab 7 μg/mL, VSMCs with monocytes and M-CSF, listed as Abciximab) was 19.1±2.2%.
